The values below come from US20130090320A1, “METHOD OF TREATING PROSTATE CANCER” (NIIKI PHARMA INC., priority 2010, published 2013).

Test [1] relates to LNCaP cell line. The test is described as follows: Docetaxel IC50 in LNCaP from published literature. The conditions noted are these: ratio of literature docetaxel IC50 in LNCaP to IC50 in PC-3. The format is cell-based, human. Here is the method:
In addition, the IC50 values of docetaxel in the LNCaP and PC-3 cell lines were obtained from published literature. The ratios of IC50 values of sodium trans-[tetrachlorobis(1H-indazole)ruthenate(III)] in a cell line sensitive to one of the other drugs and a cell line insensitive to the same drug were calculated. The results are shown in Table 1 below (“Test Drug” in the table denotes sodium trans-[tetrachlorobis(1H-indazole)ruthenate(III)]). […] See Domingo-Domenech et al., Clin. Cancer Res., 12(18):5578-5586 (2006); Blagosklonny et al., J. Urol. 163(3):1022-6 (2000). As such, sodium trans-[tetrachlorobis(1H-indazole)ruthenate(III)] is potentially effective in treating prostate cancer resistant to such other drugs.

For test [2], the system named is LNCaP cell line. Particulars: Domingo-Domenech et al., Clin. Cancer Res. 2006; cited from earlier work.
For the next test, the system named is PC-3 cell line. Particulars: Domingo-Domenech et al., Clin. Cancer Res. 2006; cited from earlier work.
Test [3] deals with LNCaP clone FGC (prostate carcinoma). Here is the method: (§1) To test the activities of sodium trans-[tetrachlorobis(1H-indazole)ruthenate(III)], ATCC's MTT Cell Proliferation Assay® was performed using human prostate cancer cell lines LNCaP clone FGC (prostate carcinoma) and PC-3 (Prostate carcinoma). Stock cultures were allowed to grow to 70-80% confluence for this study. The anti-proliferative activity of sodium trans-[tetrachlorobis(1H-indazole)[…]], against the indicated cell lines was evaluated in vitro using the ATCC's MTT Cell Proliferation Assay (Catalog No. 30-1010K). LNCaP clone FGC plates were seeded with 4,000 cells/well, and the cells were grown in RPMI 1640 medium containing 1% HEPES (1M solution), 1% sodium pyruvate, 1% glucose (45% solution), 10% heat-inactivated FBS and 1% penicillin/strep/glutamine. PC-3 plates were seeded with 6,000 cells/well, and the cells were grown in Ham's F12 medium containing 10% heat-inactivated FBS, and 1% penicillin/strep/glutamine. Cultures were maintained in a 37° C. humidified 5% CO2/95% air atmosphere. The cells were treated with sodium trans-[tetrachlorobis(1H-indazole)ruthenate(III)] at 1,000 μM, or a series of 4× dilutions thereof (250 μM, 62.5 μM, etc.). 100 μl of medium was removed from each well at 72 hours post-treatment and 10 μl MTT reagent was added to each well. […] The plates were left overnight at room temperature in the dark and was read on a plate reader using SoftMax® Pro (version 5.2, Molecular Devices).
(§2) The absorbance data was analyzed as follows: Absorbance values were converted to Percent of Control and plotted against test agent concentrations for IC50 calculations using SoftMax® Pro (version 5.2, Molecular Devices). […] Percent of Control values were calculated by dividing the absorbance values for each test well by the No Drug Control average (column 11 values; cells+vehicle control) and multiplying by 100. Plots of Compound Concentration versus Percent of Control were analyzed using the 4-parameter equation to obtain IC50 values and other parameters that describe the sigmoidal dose response curve. […]

Test [4] deals with PC-3 (Prostate carcinoma). The conditions noted are these: PC-3 cell line, MTT, 72 hours post-treatment. Here is the method:
as §1, §2

On to `CC(=O)O[C@@]12CO[C@@H]1C[C@H](O)[C@@]1(C)C(=O)[C@H](O)C3=C(C)[C@@H](OC(=O)[C@H](O)[C@@H](NC(=O)OC(C)(C)C)c4ccccc4)C[C@@](O)([C@@H](OC(=O)c4ccccc4)[C@H]21)C3(C)C` [Docetaxel, docetaxel], for which, in the test with LNCaP cell line [1], the “IC50 Ratio (LNCaP/PC-3)” value is on record as 12-20. For the same compound, the IC50 is 0.05 to 0.06 µM in the test with LNCaP cell line [2] and 0.0025 to 0.005 µM with PC-3 cell line.

`[Cl][Ru-]([Cl])([Cl])[Cl].[Na+].c1ccc2[nH]ncc2c1.c1ccc2[nH]ncc2c1` [sodium trans-[tetrachlorobis(1H-indazole)ruthenate(III)]]: the IC50 stood at 17.3 µM in test [3] (LNCaP cell line, MTT, 72 hours post-treatment) and 41.8 µM in test [4]. Moreover, in test [3] (ratio of Test Drug IC50 in LNCaP to IC50 in PC-3), the “IC50 Ratio (LNCaP/PC-3)” value is 0.41.
